Results as given in patent US20250205317A1, “METHODS AND COMPOSITIONS FOR THE TREATMENT OF STROKE” (University of Maryland, Baltimore, priority 2022, published 2025).
“Also recorded” adds a separate entry of the source.

What was measured:
[1] = tested on: C57BL6 mice, MCAo/R; experiment: MCAo/R (2/24 hours): infarct volume, hemispheric swelling, brain water, Garcia score (Example 4); format: in vivo, mouse
[2] = Serum glucose before and after canagliflozin administration (Example 3); format: in vivo, mouse; details: 0.07 mg/kg IV; compared to baseline / vehicle; 5 mice/group
Method: Drugs of the gliflozin class are used in patients with diabetes mellitus to lower serum glucose. To control for the possibility that the effect of canagliflozin was mediated by a reduction in serum glucose, we measured serum glucose at various times before and after canagliflozin (0.07 mg/kg IV) administration.

[3] = tested on: C57BL/6 mice, MCAo and reperfusion; experiment: 2-hour MCAo followed by 24 hours reperfusion, infarct volume and reperfusion edema (Example 2); format: in vivo, mouse; details: 0.07 mg/kg IV at reperfusion
Method: A,B: Edema, measured as percent hemispheric swelling, vs. TTC infarct volume following 2 hour MCAo and 24 hour reperfusion; data are shown for C57BL/6 mice treated upon reperfusion with vehicle (empty circles) vs. the SGLT2 inhibitor, canagliflozin (filled squares; 0.07 mg/kg IV). Note the significant downward shift in the regression line, signifying reduced coupling between reperfusion edema and infarct volume.
The known variability in the brain damage caused by ischemia in C57BL/6 mice was leveraged (Knauss, et al., Frontiers in Neuroscience 2020) to quantify the relationship between reperfusion edema and infarct volume, under both control conditions and with SGLT2 inhibition. Mice underwent 2-hour MCAo followed by 24 hours reperfusion. At 2 hours, at the time of reperfusion, mice were randomly assigned to receive either vehicle control or canagliflozin (0.07 mg/kg IV). At 24 hours, the brains were evaluated for infarct volume using 2,3,5-triphenyltetrazolium chloride (TTC) (Khan, et al., Evaluation of an optimal temperature for brain storage in delayed 2, 3,5-triphenyltetrazolium chloride staining, J. Neurosci. Methods 2000, 98:43-47), and the hemisphere volume was quantified as a measure of reperfusion edema. McBride, et al., Correcting for Brain Swelling's Effects on Infarct Volume Calculation After Middle Cerebral Artery Occlusion in Rats, Transl. Stroke Res. 2015, 6:323-338. […]

[4] = tested on: astrocytes (SGLT2 activated by glucose); experiment: Astrocyte cell volume in ex vivo MCAo/R brain slices after glycemic challenge; format: cell-based, mouse; details: ipsilateral brain slices, MCAo/R 2/6 hours; step change 2 to 10 mM glucose; 5 μM
[5] = Blood glucose at reperfusion and at euthanasia by glucometer (Example 4); format: in vivo, mouse; details: non-diabetic mice; 200 μg/kg IV; 5-7 mice/group
[6] = tested on: patients with or without T2DM; details: long-term use, regardless of T2DM; cited from earlier work
[7] = tested on: rat model with type 1 diabetes mellitus and bilateral ischemia; details: 30-minute bilateral ischemia; cited from earlier work
[8] = 200 μg/kg IV at reperfusion, mean ± S.E.

Row | Compound | neurological function, Garcia score (median) ([1]; 200 μg/kg IV) | hemispheric swelling [1, 8] [%] | infarct volume [1, 8] [mm^3] | maximum hemispheric swelling (YM) from exponential fit ([1]; 200 μg/kg IV, fit to Eq. 1) [%] | ipsilateral brain water ([1]; 200 μg/kg IV, wet weight/dry weight method) | serum glucose [2] | infarct volume (TTC) [3] | reperfusion edema (percent hemispheric swelling) relative to infarct volume ([3]; shift in Deming regression p<0.0001) | glucose-induced changes in astrocyte volume [4] | blood glucose at 24 hours [5] [mg/dL] | blood glucose at reperfusion [5] [mg/dL] | progression of kidney disease [6] | risk of death from cardiovascular disease [6] | blood glucose [7] | infarct volume [7]
1 | Cc1ccc([C@@H]2O[C@H](CO)[C@@H](O)[C@H](O)[C@H]2O)cc1Cc1ccc(-c2ccc(F)cc2)s1 [canagliflozin] | 8 | 15.7±1.0 | 87.7±6.7 | 17.9 | 82.3±0.4 | remained euglycemic; also recorded: not affected | 63.1±8.0 % of hemisphere | reduced at all infarct volumes | completely blocked | 146 ± 10 | 175 ± 10 |  |  |  | 
2 | OC[C@H]1O[C@@H](c2ccc(Cl)c(Cc3ccc(O[C@H]4CCOC4)cc3)c2)[C@H](O)[C@@H](O)[C@@H]1O [empagliflozin] |  |  |  |  |  |  |  |  |  |  |  | slows the progression of kidney disease | reduces the risk of death from cardiovascular disease | reduced blood glucose | reduced blood glucose as well as infarct volume
